The values below come from patent US8741932B2, “Imidazopyridine derivatives” (Piramal Enterprises Limited, priority 2009, dated 2014).

Assay type in all cases: cell-based
The target in assay [1] is T1, mTOR (Homo sapiens, UniProt P42345).
T1 construct: endogenous in cells; host or cells: A2780 ovarian cell line (ATCC)
The experiment in a line: mTOR activity assay (cell ELISA, Phospho-AKT Ser 473, A2780 cells). The conditions noted are these: for inhibition at 1 µM: read-out: % Inhibition of mTOR activity at 1 μM. In a few lines: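 A2780 cells adhered 18-24 h, serum-starved 24 h, then stimulated with 20% FCS for 30 min alongside compound-treated sets. Fixed cells probed for phospho-AKT Ser473 by HRP/OPD cell ELISA, absorbance 490 nm. Values given as percentage or fold decrease in AKT phosphorylation relative to stimulated cells.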
For orientation: An ELISA detects its analyte on a solid surface through an enzyme-linked reagent.

Assay [2] relates to A2780. The assay can be described thus: Cytotoxicity assay (propidium iodide), A2780. The conditions noted are these: Homo sapiens; A2780 (C3a, ovarian); 48 hours.
Protocol: (§1) Cells from cell lines as mentioned in the table given below were seeded at a density of 3000 cells/well in a white opaque 96-well plate. Following incubation at 37° C./5% CO2 for a period of 18-24 hours, the cells were treated with various concentrations (stock solution was prepared in DMSO and subsequent dilutions were made in media as per ATCC guidelines) of the representative compounds of present invention (refer table 3) for a period of 48 hours. At the end of treatment, the spent culture medium was discarded, the cells were washed with 1×PBS and 200 μl of 7 μg/ml propidium iodide was added to each well. The plates were frozen at −70° C. for at least 24 hours. For analysis, the plates were brought to RT, allowed to thaw and were read in PolarStar fluorimeter with the fluorescence setting. The percentage of viable cells in the non treated set of wells was considered to be 100 and the percentage viability following treatment was calculated accordingly. IC50 values were calculated from graphs plotted using these percentages.
For assay [3], the system named is OVCAR 3. The assay can be described thus: Cytotoxicity assay (propidium iodide), OVCAR 3. Conditions: Homo sapiens; OVCAR 3 (C3c, ovarian); 48 hours.
The test system of assay [4] is A549. The assay can be described thus: Cytotoxicity assay (propidium iodide), A549. Conditions: Homo sapiens; A549 (C1a, lung); 48 hours.
Protocol: as §1
Assay [5] relates to HCT116. The experiment in a line: Cytotoxicity assay (propidium iodide), HCT116. Conditions: Homo sapiens, HCT-116; HCT116 (C4b, colon); 48 hours.
Assay [6] deals with STAT3. The experiment in a line: STAT3 bioassay (Hela Stat3-luc, luciferase). Conditions: Homo sapiens, Oncostatin M induction. In a few lines:
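Hela Stat3-luc cells (20,000/well, 24 h) pretreated with compound 1 h, then induced with 100 ng/ml final Oncostatin M for 7-8 h at 37 °C. Luciferase luminescence after lysis; percent inhibition versus induction control, IC50 from these percentages.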

Assay [7] has as its system PANC 1. The assay can be described thus: Cytotoxicity assay (propidium iodide), PANC 1. The conditions noted are these: Homo sapiens; PANC 1 (C5a, pancreatic); 48 hours.
Protocol: as §1
Assay [8] concerns T47D. The experiment in a line: Cytotoxicity assay (propidium iodide), T47D. The conditions noted are these: Homo sapiens; T47D (C6e, breast); 48 hours.
Protocol: as §1

The IC50 is the midpoint of a concentration-inhibition curve. Low readings indicate greater potency in that assay, high ones weaker potency in that assay. As for `CN(N=Cc1cnc2ccc(-c3cccnc3)cn12)S(=O)(=O)c1cccc(F)c1` [Example 5, 3-Fluoro-N-methyl-N′-((6-(pyridine-3-yl)imidazo[1,2-a]pyridine-3-yl)methylene)benzenesulfonohydrazide], the IC50 in assay [1] was in the range of 1 to 5 µM; in assay [2], 0.01 to 5 µM; in assay [3] it was 0.01 to 5 µM; in assay [4], 0.01 to 5 µM; in assay [5], 0.01 to 5 µM; in assay [6], 0.1 to 5 µM. The IC50 in assay [7] was 0.01 to 5 µM; in assay [8], over 5 µM.
In general, inhibition refers to the drop in the measured response relative to a control, in per cent. As for `CN(N=Cc1cnc2ccc(-c3cccnc3)cn12)S(=O)(=O)c1ccc(F)cc1` [Example 6, 4-Fluoro-N-methyl-N′-((6-(pyridine-3-yl)imidazo[1,2-a]pyridine-3-yl)methylene)benzenesulfonohydrazide], the inhibition at 1 µM in assay [1] was 30 to 50%. In addition, the IC50 was 0.01 to 5 µM in assay [2]; 0.01 to 5 µM in assay [3]; 0.01 to 5 µM in assay [4]; 0.01 to 5 µM in assay [5]; 5 to 10 µM in assay [6]; 0.01 to 5 µM in assay [7]. This compound gave an IC50 in assay [8] of over 5 µM.
Turning to `CN(N=Cc1cnc2ccc(-c3cccnc3)cn12)S(=O)(=O)c1cc(F)cc(F)c1` [Example 16, 3,5-Difluoro-N-methyl-N′-((6-(pyridine-3-yl)imidazo[1,2-a]pyridine-3-yl)methylene) benzenesulfonohydrazide], the inhibition at 1 µM in assay [1] lay within 30 to 50%. This compound also had an IC50 in assay [6] of 5 to 10 µM.
For `Cc1ccc(F)cc1S(=O)(=O)N(C)N=Cc1cnc2ccc(-c3cccnc3)cn12` [Example 21, 5-Fluoro-N, 2-dimethyl-N′-((6-(pyridine-3-yl)imidazo[1,2-a]pyridine-3-yl)methylene) benzenesulfonohydrazide], the IC50 fell in the range of 1 to 5 µM in assay [1]; 0.01 to 5 µM in assay [2]; 0.01 to 5 µM in assay [3]; 0.01 to 5 µM in assay [4]; 0.01 to 5 µM in assay [5]; 5 to 10 µM in assay [6]. Also, the IC50 in assay [7] is 0.01 to 5 µM.
As for `Cc1ccc([N+](=O)[O-])cc1S(=O)(=O)N(C)N=Cc1cnc2ccc(-c3cccnc3)cn12` [Example 25], the IC50 in assay [1] lay within 1 to 5 µM; in assay [2], 0.01 to 5 µM; in assay [3], 0.01 to 5 µM; in assay [4] it was 0.01 to 5 µM; in assay [5] it was 0.01 to 5 µM; in assay [6], 0.1 to 5 µM. For the same compound, the IC50 in assay [7] and in assay [8] was 0.01 to 5 µM each time.
